Experimental data from US10247722B2, “Use of compounds inhibiting apelin / APJ / GP130 signaling for treating cancer” (Centre National de la Recherche Scientifique (CNRS), priority 2014, dated 2019).
Entries after “also recorded” stand apart in the source; their conditions may differ. Positions of bridges follow the written chain, without caps; N, C: chain ends. No end group written: not given here.

Assays:
patient-derived GSCs [1] = assay: Secondary neurosphere/tumoursphere formation, Sox2/Nestin expression and trypan blue viability of GSCs; type: cell-based, human; settings: mitogen-free medium plus APJ agonist; ML233 1 mmol·l^1, 4 days (FIG. 13)
STAT3 [2] = settings: recombinant Apelin 1 μM
Description: A. Western-blot analysis for pY-STAT3, pS-STAT3 and Total STAT3 in GSC#1 treated with complete media (NS34), deprived medium (SF), endothelial cell-conditioned media (EC-CM), or SF supplemented with Apelin (1 μM), for the indicated times. B. GSC#1 received non-silencing siRNA (sic) or siRNA targeting APJ. GSC#1 were treated with EC-CM and analyzed by western-blots using the indicated antibodies (upper panel). Alternatively, GSC#1 received EC-CM prepared from non-silencing shRNA (shC) or shRNA targeting Apelin (lower panel). […] GSC#1 received non-silencing siRNA (siC) or siRNA targeting GP130, were stimulated with EC-CM three days later, and protein lysates were analyzed by western-blots, using the indicated antibodies. D. GSC#1 were pre-treated with GP130-blocking antibody 45 min prior EC-CM or Apelin stimulation and protein lysates were analyzed by western-blots. E. Neurosphere assay was conducted in GSC#1 treated with siRNA as in (C) or with GP130-blocking antibody as in (D).
Proteins were collected in TNT buffer (10 mM Tris-HCl pH 7.5, 150 mM NaCl, 1% Triton X100, 2 mM EDTA) plus protease inhibitors (Sigma), 200 mM NaF and 0.1 mM Na3VO4. Equal amounts of proteins (microBCA kit, Pierce) were separated with 4-12% Nupage gels (Invitrogen) and transferred onto PVDF membranes (Thermo Fisher Scientific). […]

patient-derived GSCs [3] = assay: Secondary neurosphere/tumoursphere formation, Sox2/Nestin expression and trypan blue viability of GSCs; type: cell-based, human
Description: (§1) FIG. 9. […] GSCs were pre-treated with APJ antagonist (MM54, 2 μmol·l^1) 45 min prior EC-CM or Apelin (Apin, 1 μmol·l^−1, 7 min) and protein lysates were analysed by western-blots with the indicated antibodies. Controls include GSC grown in complete (NS) and mitogen-free media (MF). b. STAT3 reporter activity was measured in mock, APJ, Gp130 and APJ+Gp130-transfected HEK-293T and exposed for 6 h to MF and Apin, together with either DMSO or MM54. c. GSCs were exposed to NS, EC-CM and Apin in the presence of DMSO or MM54. Tumoursphere formation per field of view (TS/FOV) was also quantified. d. Nude mice were xenografted with GSCs and bi-weekly intraperitoneal administration of vehicle (PBS) or APJ antagonist (MM54, 20 μmol·l^−1) started at week 4 (arrow). Tumour volume was measured weekly for 7 weeks. e. Frozen sections from GSC-xenografted tumours treated either with vehicle or MM54 were stained for blood vessels (PECAM), together with either Ki67 (proliferation marker or Nestin and nuclei. Percentage of dead cells was estimated by TUNEL. Quantification of both staining is shown. Data represent mean+sem on n=3 experiments. Two-way ANOVA: *P<0.05; **P<0.01.
FIG. 11. […] Apelin secretion was measured by EIA in positive templates (C+), mitogen-free media (MF), human brain endothelial cell (EC) and GSC conditioned media (CM). RT-PCR for Apelin and Actin is also shown for EC and GSC. b. Confocal analysis of Nestin (green), Sox2 (red) and nuclei (DAPI, blue) in GSC grown in complete media (NS), in MF, in EC-CM or MF containing only recombinant Apelin (Apin, 1 μmol·l^−1). Scale bar: 40 um. c-d. GSCs #1-16 were cultured in MF or Apin. Quantification of tumourspheres per field of view (TS/FOV) (c) and trypan blue exclusion quantification (Viable cells %) (d) was performed. e. EC received non-silencing RNA (siC) or Apin targeting siRNA (siApin). Apin extinction was checked by RT-PCR and enzyme immunoassay. f. GSCs were cultured with siC and siApin EC-CM, as prepared in (e). Confocal analysis was performed on Nestin (green), Sox2 (red) and DAPI (blue) co-staining. Scale bar: 40 μm. g-h. siC or siApin EC-CM treated GSCs were processed as in (c, d). i-k. GSCs were cultured with NS, MF, siC EC-CM and siApinEC-CM alone or plus Apin. Phase pictures are shown (i) Scale bar: 25 μm, TS/FOV and viable cells were also analysed (j, k). Data represent mean+sem on n=3 experiments. T-test: *P<0.05; **P<0.01; ***P<0.001.
GSCs were dissociated by up-and-down pipetting and cultured in a 48-well plate format. […] NS counts were blindly performed on five random fields of view (fov) and the mean of neurosphere/fov was calculated from 3 independent experiments. Statistical analyses were performed using 2-way Student's test (Excel Microsoft Office).

Akt/mTor pathway = assay: Western blot of Akt/mTor pathway activation (pAkt, pS6) in GSCs; type: cell-based, human
Description: FIG. 4. […] Scale bar: 40 μm. Data represent mean+sem on n=3 experiments.
as §1

[4] = tested on: human GSCs implanted into immunocompromised mouse flanks; assay: Subcutaneous GSC xenograft in nude mice, tumour growth and histology; type: in vivo
Description: (§2) FIG. 9. Pharmacological inhibition of APJ impairs tumour growth. a. GSCs were pre-treated with APJ antagonist (MM54, 2 μmol·l^1) 45 min prior EC-CM or Apelin (Apin, 1 μmol·l^−1, 7 min) and protein lysates were analysed by western-blots with the indicated antibodies. Controls include GSC grown in complete (NS) and mitogen-free media (MF). b. STAT3 reporter activity was measured in mock, APJ, Gp130 and APJ+Gp130-transfected HEK-293T and exposed for 6 h to MF and Apin, together with either DMSO or MM54. c. GSCs were exposed to NS, EC-CM and Apin in the presence of DMSO or MM54. Tumoursphere formation per field of view (TS/FOV) was also quantified. d. Nude mice were xenografted with GSCs and bi-weekly intraperitoneal administration of vehicle (PBS) or APJ antagonist (MM54, 20 μmol·l^−1) started at week 4 (arrow). Tumour volume was measured weekly for 7 weeks. e. Frozen sections from GSC-xenografted tumours treated either with vehicle or MM54 were stained for blood vessels (PECAM), together with either Ki67 (proliferation marker or Nestin and nuclei. Percentage of dead cells was estimated by TUNEL. Quantification of both staining is shown. Data represent mean+sem on n=3 experiments. Two-way ANOVA: *P<0.05; **P<0.01.
All animal studies were carried out according to French Ministry approved protocols (agreement number #00754.02), in compliance with the European Convention for the Protection of Vertebrate Animals used for Experimental and other Scientific Purposes (ETS 123). Six weeks old females BALB/c nude mice (Janvier) were subcutaneously injected with 1*10^6 cells in 100 μl 1:1 PBS and growth factors-free matrigel (Corning). For tumour initiation (FIG. 9), mice were examined weekly in the search for tumours and sacrificed 7 weeks after implantation. For pharmacological studies (FIG. 6), mice were treated twice per week with MNI54 or vehicle (DMSO) diluted in PBS (100 μl) (intraperitoneal injection for 7 weeks), once tumours were detected (4 weeks post-implantation).
Upon sacrifice, tumours were extracted, embedded in OCT (Tissue Tek) in biomoulds, frozen by immersion in dry ice-chilled isopentane for 1 min, and stored at −80° C. for further analysis.
For immunostaining, embedded OCT-tumours were cut in 7 μm sections using a CM350S Leica cryostat (Histology platform, Institut Cochin, Paris). […]
A minimum of 3 tumour sections per condition was used, with at least 5 different fields of view (fov) each. For blood vessel surface analysis, PECAM pixel intensity was calculated in each fov and an average+sem of the total fov was represented. Cell proliferation was assessed through the percentage of Ki67-positive cells normalized to the total cell number of cells in DAPI. Nestin positive cells were counted per fov.

[5] = Toxicity observation in MM54-treated mice (body weight, heart/body weight ratio, heart anatomy); type: in vivo; settings: ectopic tumour-bearing mice, bi-weekly over 7 weeks; sham-operated female nude mice
Description: FIG. 16. […] Gain weight was measured in ectopic tumour bearing mice that received bi-weekly treatment over 7 weeks. b-d. Female nude mice underwent intracranial implantation of PBS (sham surgery) and then received DMSO and MM54 17 days after PBS implantation. Body weight was monitored long the experiment (a). Heart/body weight ratios were calculated at the day of sacrifice (c). General anatomy of hearts from DMSO and MM54-treated mice using the Masson Trichrome staining (d).

[6] = tested on: mice intracranially implanted with GSCs; assay: Orthotopic (intracranial) GSC #9 implantation in nude mice; type: in vivo
Description: FIG. 15. Anti-tumor effect of APJ inhibition. Nude mice were implanted with GSC #9 orthotopically (10^5 cells) and treated tri-weekly with intraperitoneal injection of vehicle (PBS) or APJ antagonist (MM54, 20 μmol·l^−, 4 mg/kg) starting at day 16 (arrow). Appearance of neurological symptoms (a) and weight at sacrifice (b) were monitored. Kaplan-Meier survival curve of GSC #9-bearing mice is shown (c). Data represent mean+sem of n=3 experiments. Two-way ANOVA: *P<0.05; **P<0.01.

STAT3 [7] = assay: STAT3 luciferase reporter assay in HEK-293T co-expressing APJ and Gp130; type: cell-based, human; settings: HEK-293T co-expressing APJ and Gp130, Apelin 6 h
Description: as §2, with “Nude mice were xenografted with GSCs and bi-weekly intraperitoneal administration of vehicle (PBS) or APJ antagonist (MM54, 20 μmol·l^−1) started at week 4 (arrow).” left out
HEK-293T cells were co-transfected with HA-APJ, GP130, STAT3 Luciferase Reporter Vector (Affymetrix) and Renilla (Promega). […] Then, cells were lysed and STAT3 luciferase activity was measured using the Dual-Luciferase Reporter Assay (Promega). […]

[8] = intracranial GSC #9, intraperitoneal MM54 thrice a week (4 mg/kg) from day 16

## CC1=CC(=O)C(C2CCCCC2)=C/C1=N\OS(=O)(=O)c1ccccc1 [ML233]
patient-derived GSCs [1]
  GSC survival: promote GSC survival; also recorded: promotes GSC survival through APJ/GP130

## Apelin
STAT3 [2]
  Activation of STAT3 signaling in GSCs: able to activate this signaling pathway
patient-derived GSCs [3]; exogenous Apelin added into Apelin-depleted endothelial cell-derived media
  EC-CM-sustained self-renewal and viability of GSCs: restored
patient-derived GSCs [3]; recombinant Apelin 1 μM in mitogen-free media, panel of 16 patient-derived GSCs
  GSC self-renewal (secondary neurosphere formation and Sox2/Nestin expression): sufficient to support self-renewal; also recorded: maintained
patient-derived GSCs [3]; recombinant Apelin in mitogen-free media, trypan blue exclusion
  Mitogen deprivation-induced cell death: hindered
patient-derived GSCs [1]
  GSC survival: has an effect on GSCs survival
Akt/mTor pathway; recombinant Apelin 1 μM, no other exogenous mitogen
  Activation of the Akt/mTor pathway in GSCs (Akt, S6 phosphorylation): able to activate this pathway in a similar extend than EC-CM; also recorded: triggered the activation of the mTor signalling cascade

## Apelin 13
patient-derived GSCs [1]
  GSC survival: promote GSC survival

## Apelin 36: 36 amino acid peptide corresponding to the sequence 42-77 of the Apelin proprotein; APJ agonist (LVQPRGSRNGPGPWQGGRRKFRRQRPRLSHKGPMPF; homo sapiens; Apelin 36 aa - homo sapiens)
patient-derived GSCs [1]
  GSC survival: promote GSC survival

## cyclo(1-6)CRPRLC-KH-cyclo(9-14)CRPRLC (CRPRLCKHCRPRLC; bridge 1-6, 9-14) [MM54, APJ antagonist (Macaluso N J et al., 2011), supplied by Dr. Robert Glenn]
patient-derived GSCs [3]; GSCs cultured with EC-CM
  Neurosphere number and size, with Sox2/Nestin: dramatically decreased
patient-derived GSCs [3]; GSCs exposed to EC-CM or Apelin in presence of DMSO or MM54
  Endothelial Apelin-dependent GSC self-renewal and survival (tumoursphere formation): blocks; also recorded: impaired
[4]; bi-weekly intraperitoneal MM54
  GSC number in residual tumours, as scored with Nestin: decreased
  Overall cell proliferation (Ki67) and viability (TUNEL) in residual tumours: decreased
  Tumour vascularisation (PECAM): reduction
[4]; bi-weekly intraperitoneal MM54 (20 μmol·l^−1) from week 4, 7 weeks
  Tumour growth (tumour volume): capable of in vivo inhibiting tumor growth once initiated; also recorded: restrain tumor growth and expansion; also recorded: strongly hindered
[5]
  Toxic effects of treatment: does not exert any obvious toxic effects
Akt/mTor pathway; pre-treatment 45 min prior EC-CM or Apelin (1 μmol·l^−1, 7 min), MM54 2 μmol·l^−1
  Inhibition of EC-CM- and Apelin-induced Akt/mTor activation in GSCs: blocks; also recorded: alleviated
[6]; intracranial GSC #9, intraperitoneal MM54 thrice a week (20 μmol·l^−, 4 mg/kg) from day 16
  Neurological symptoms: significantly abolish
[6]; [8]
  Loss weight associated with tumour progression: rescue
  Overall survival of tumour-bearing mice (Kaplan-Meier): dramatically increased
[6]; intracranial GSCs, intraperitoneal MM54 thrice a week
  Tumour size: reduced
STAT3 [7]
  Inhibition of Apelin-mediated STAT3 activation (STAT3 reporter activity): reduced
STAT3 [7]; listed as pharmacological antagonist of APJ
  Inhibition of Apelin-mediated STAT3 activation (STAT3 reporter activity): blocked
